Measured values taken from patent US9540691B2, “Assays and methods for selecting a treatment regimen for a subject with depression” (THE GENERAL HOSPITAL CORPORATION, priority 2011, dated 2017).
Where two headings read alike, the source gives them in different places.

What was measured:
[1] = tested on: patients with major depressive disorder (MDD) resistant to treatment with SSRIs
Protocol: Documentation of the presence of any side effect or adverse event is completed at every visit using the SAFTEE-SI. Subjects can contact a clinician at any time between visits concerning adverse events or worsening of symptoms. Suicidal ideation is assessed at each visit. Subjects who are felt by the study clinician to be at high risk for suicide are discontinued from the study and referred for hospitalization and further treatment if clinically indicated (See Tables 4 & 5 below).
One-way analysis of variance can be used to assess differences in total number of SAFTEE-SI AEs between baseline and endpoint.

[2] = tested on: patients with major depressive disorder (MDD) resistant to treatment with SSRIs; remark: listed apart in the source
From the text: Using the sequential parallel design […] For those randomly assigned to the placebo/placebo sequence, both responders and non-responders to placebo during the first phase (n=25) remain on placebo during the second phase. […] Data from the previous double-blind, placebo-controlled study (Trial 1) can be pooled into the instant study (Trial 2) to provide a more accurate estimate of the placebo effect size, with a weighted average from the two Phases 1 (one from Trial 1 and one from Trial 2) and two Phases 2 (one from Trial 1 and one from Trial 2).
The primary efficacy measure can include the change in 17-item Hamilton Rating Scale for Depression (HAM-D-17) score. […] A remission is, for example, defined as a HAM-D-17 score less than 8 at endpoint. Secondary measures of efficacy can include change in CGI-severity, with “clinical response defined” as CGI-S of 1 or 2 at endpoint. Patients with a CGI-I score greater than 5 at any post baseline visit or a 50 percent or greater worsening of depressive symptoms from baseline to that visit are discontinued from the study. Subjects are also discontinued from the study with any emergence of suicidality, homicidality, mania, or psychosis. Additional exemplary instruments that can be administered according to the study schedule include the following: • (1) Structured Clinical Interview for DSM-IV: The SCID-I/P, administered by the clinician, proceeds by modules to diagnose the different Axis I disorders. Questions are asked exactly as written, and each is based on the individual criteria from DSM-IV. Answers are generally rated on a scale of 1-3 (1=doubtful, 2=probable, 3=definite), and, based on the number of positive answers, a diagnosis is determined by a clinician. While the entire SCID-UP is administered at screen, the mood module is administered at each follow up visit. • (2) The MGH Antidepressant Treatment History Questionnaire (MGH-ATR): The MGH-ATR provides specific criteria for the adequate dose and adequate length of a trial for it to be considered a failure, thus allowing clinicians to systematically collect data aimed at assessing the degree of treatment-resistance of the current major depressive episode. • (3) The 28-item Hamilton Depression Scale (HAM-D-28): This version allows scoring of the HAM-D-17, 21-, 25-, and 28-item scales. This instrument is completed by the clinician by using a structured interview and defined anchor points, and aims to quantify the degree of depression over the past 7 days. The HAM-D is the most widely studied instrument for depression, and its reliability and validity are high. • (4) Clinical Global Impressions-Severity and Improvement (CGI-S, CGI-I): These two instruments are scored 1-7 by the clinician based on assessment of the patient's clinical status. They measure, based on history and scores on other instruments: a) Depressive severity (CGI-S) and b) Clinical Improvement (CGI-I). […] Safety Measurements
Data are entered and error-checked at each clinical site involved in the study. Study staff and subjects may have the option to enter self-evaluations into the system directly using DatStat Illume™. The process of data entry is supervised by the DCRP staff. Once the data set is entered and checked, analyses are conducted. Both a completer analysis of all patients finishing the trial and an intent-to-treat analysis examining all patients enrolled into the trial are used to define the severity of depression at endpoint. Examination of both study completers and all patients randomized can provide the broadest assessment of the effects of treatment in trials of such kind. The data from Trial 2 can be pooled with those from Trial 1 with the sequential parallel comparison design, to provide an estimate of the placebo response based on a larger sample size. […] Let p1, q1 be the response rates to the first administration of drug and placebo respectively and let p2, q2 be the responses rates to the second treatment.

[3] = L-methylfolate 15 mg (n = 42) with SSRI
[4] = L-methylfolate 15 mg vs placebo
[5] = 7.5 mg/day adjunct to SSRI, Phase 1
[6] = 7.5 mg/day adjunct to SSRI, Phase 2 (Phase 1 completers/non-responders only)
[7] = 7.5 mg/day adjunct to SSRI, pooled Phases 1 and 2 (SPCD)

## CN1c2c(nc(N)[nH]c2=O)NC[C@@H]1CNc1ccc(C(=O)N[C@@H](CCC(=O)O)C(=O)O)cc1 [6(S)-5-MTHF, 6(S)-5-methyltetrahydrofolate]
[1]; [3]
  Cardiovascular side effects, Frequency (%): (0%)
  Cardiovascular side effects, Frequency (number of subjects): 0
  Gastrointestinal side effects, Frequency (number of subjects): 7
  Infectious side effects, Frequency (number of subjects): 5
  Miscellaneous side effects, Frequency (%): (2.4%)
  Miscellaneous side effects, Frequency (number of subjects): 1
  Psychological side effects, Frequency (%): (9.5%)
  Psychological side effects, Frequency (number of subjects): 4
  Sexual side effects, Frequency (%): (2.4%)
  Sexual side effects, Frequency (number of subjects): 1
  Sleep side effects, Frequency (%): (2.4%)
  Sleep side effects, Frequency (number of subjects): 1
  Somatic side effects, Frequency (number of subjects): 6
[1]; [4]
  Cardiovascular side effects, NNH: =placebo
  Gastrointestinal side effects, NNH: 53
  Infectious side effects, NNH: <placebo
  Miscellaneous side effects, NNH: <placebo
  Psychological side effects, NNH: <placebo
  Sexual side effects, NNH: 98
  Sleep side effects, NNH: <placebo
  Somatic side effects, NNH: <placebo
[1]; SSRI + 15 mg/day
  number of adverse events by SAFTEE-SI vs placebo (in words): no significant differences
[1]; Trial 2, FIG. 3E
  discontinuation from the study due to overall adverse side-effects or exclusion events (in words): no difference
[2]; 7.5 mg/day
  efficacy as an adjunct to the SSRIs (in words): not effective
[2]; [5]
  CGI-S Mean score reduction (SD): −0.5 (0.9)
  HDRS-17 % Remission: 11.1% (4)
  HDRS-17 % Response: 19.8% (7)
  HDRS-17 Mean score reduction (SD): −4.3 (5.0)
  QIDS-SR % Remission: 0.0% (0)
  QIDS-SR % Responsive: 25.0% (9)
  QIDS-SR Mean score reduction (SD): −4.6 (5.1)
[2]; [6]
  CGI-S Mean score reduction (SD): −0.5 (0.7)
  HDRS-17 % Remission: 14.2% (5)
  HDRS-17 % Response: 17.1% (6)
  HDRS-17 Mean score reduction (SD): −3.1 (4.2)
  QIDS-SR % Remission: 8.5% (3)
  QIDS-SR % Responsive: 8.5% (3)
  QIDS-SR Mean score reduction (SD): 4.8 (4.1)
[2]; [7]
  CGI-S Mean score reduction: −0.53
  HDRS-17 Mean score reduction: −3.70
  QIDS-SR % Remission: 4.3%
  QIDS-SR % Responsive: 19.8%
  QIDS-SR Mean score reduction: −0.25
[2]; 15 mg/day in second phase, drug/drug sequence
  increase in response and remission rate compared to placebo with SSRIs: at least 2 fold
[2]; dose increased from 7.5 to 15 mg/day in second phase, drug/drug sequence, placebo with SSRIs 9%, p=0.1
  response and remission rate: 24%
